Measured values as given in patent US4789670A, “Method and compositions for suppression of atherogenesis utilizing cholesterol hydroperoxides” (priority 1987, dated 1988).

Columns and labels:
Bovine brain calmodulin = Bovine brain calmodulin (Bos taurus, UniProt P62157); assay: Calmodulin assayed by activation of calmodulin-dependent cyclic nucleotide phosphodiesterase; format: biochemical; conditions: 122 μM
From the text: Bovine brain calmodulin was purified to homogeneity according to the method described by Sharma and Wang (1979), cited above, with the inclusion of phenyl-Sepharose affinity chromatography as described by Dedman and Kaetzel (1983) Methods Enzymol., 102:1-8. Calmodulin-deficient, calmodulin-dependent cyclic nucleotide phosphodiesterase from bovine brain was partially purified by the method described by Sharma et al. (1983) Methods Enzymol., 102:210-219, with the omission of the calmodulin-Sepharose affinity chromatography. Calmodulin was assayed by the activation of the bovine brain calmodulin-dependent cyclic, nucleotide phosphodiesterase as described by Leung et al. (1982) J. Biol. Chem., 259:2742-2747. Briefly, the phosphodiesterase reaction was coupled to the 5,'-nucleotidase reaction. The amount of phosphate released was measured by the malachite green method of Carter and Karl (1982) J. Biochem. Biophys. Methods, 7:7-13. One unit of calmodulin is defined as that amount giving 50% of the maximal activation of the phosphodiesterase.

[1] = tested on: New Zealand white rabbits; assay: Rabbit feeding experiments: aortas stained with Sudan IV for atherosclerotic lesions; format: in vivo
Description: (§1) For the first feeding experiment, eighteen young adult New Zealand white rabbits (2.7+/-0,3 kg) were divided into […]. The first group (3 animals) was killed immediately and tissue samples obtained for comparison with the experimental animals. The controls (3 rabbits) were fed 160 g/day Purina Pelleted Rabbit Chow (Ralston Purina Co., St. Louis, MO.); the other three groups (4 rabbits each) received the same diet to which was added 1.6 g recrystallized cholesterol, or 50 mg of the cholesterol hydroperoxide-enriched material, or both 1.6 g recrystallized cholesterol and 50 mg of cholesterol hydroperoxides. The sterols were added to the pelleted diet in ethyl ether and the ether was allowed to evaporate under a stream of nitrogen. The animals were fed this diet for 61 days, during which time one animal on the cholesterol diet died of unknown causes. The weight gained by the animals during the experiment, as percent of initial weight, was: controls, 38%; cholesterol, 33%; hydroperoxides, 34%; and cholesterol plus hydroperoxides, 18%. At the end of the feeding period the animals were killed and blood and tissue samples obtained for further investigation.
A second feeding experiment was conducted in the same way as the first with the following changes. Twenty-six rabbits (2.8 +/-0.05 kg) were obtained; two were killed before the feeding experiment began and tissue samples obtained as before. The remaining animals were divided into 6 groups of 4. Four groups received the same diets as in the first experiment. The other two groups received 160/g day Purina Pelleted Rabbit Chow to which was added 50 mg/day of the material produced by reduction of the hydroperoxide-enriched material with NaI; or 1.6 g/day recrystallized cholesterol plus 50 mg/day of the reduced material. […]
The aortas were sectioned longitudinally and stained with Sudan IV (Holman et al., 1958Lat. Invest., 7:42-47). […] J. Biochem. and Physiol., 37:911-917 and free and esterified cholesterol concentrations in plasma, lipoproteins, and tissue were determined by the method of Sale (1984) Anal. Biochem., 142:347-350.

[2] = Rabbit feeding experiments: blood plasma cholesterol and cholesterol esters; format: in vivo; conditions: +/- S.D.
Description: as §1
A second feeding experiment was conducted in the same way as the first with the following changes. Twenty-six rabbits (2.8 +/-0.05 kg) were obtained; two were killed before the feeding experiment began and tissue samples obtained as before. The remaining animals were divided into 6 groups of 4. Four groups received the same diets as in the first experiment. The other two groups received 160/g day Purina Pelleted Rabbit Chow to which was added 50 mg/day of the material produced by reduction of the hydroperoxide-enriched material with NaI; or 1.6 g/day recrystallized cholesterol plus 50 mg/day of the reduced material. The animals received all six diets for 56 days, during which time one control animal and one receiving the hydroperoxide preparation died during removal of blood samples. The weight gain, as percent of initial weight, was: controls, 45%; cholesterol, 31%; hydroperoxides, 29%; cholesterol plus hydroperoxides, 31%; reduced hydroperoxides 35%, and cholesterol plus reduced hydroperoxides, 30%.
(§2) The aortas were sectioned longitudinally and stained with Sudan IV (Holman et al., 1958Lat. Invest., 7:42-47). Serum lipoproteins were separated as described by Havel et al. (1955) J. Clin. Invest., 34:1345-1353. Lipids were extracted by the method of Bligh and Dyer (1959) Can. J. Biochem. and Physiol., 37:911-917 and free and esterified cholesterol concentrations in plasma, lipoproteins, and tissue were determined by the method of Sale (1984) Anal. Biochem., 142:347-350.

[3] = Rabbit feeding experiment: cholesterol and cholesterol esters in liver and heart; format: in vivo; conditions: first feeding experiment, +/- S.D.
Description: as §1, §2

[4] = tested on: rabbits fed an atherogenic diet; conditions: cited from earlier work

## CC(C)CCC[C@@H](C)[C@H]1CC[C@H]2[C@@H]3C(=O)C=C4C[C@@H](O)CC[C@]4(C)[C@H]3CC[C@]12C [5-cholesten-3β-ol-7-one]
Bovine brain calmodulin
  effect in the phosphodiesterase assay: without effect

## CC(C)CCC[C@@H](C)[C@H]1CC[C@H]2[C@@H]3CCC4=CC(=O)CC[C@]4(C)[C@H]3CC[C@]12C [4-cholesten-3-one]
Bovine brain calmodulin
  effect in the phosphodiesterase assay: without effect

## CC(C)CCC[C@@H](C)[C@H]1CC[C@H]2[C@@H]3C[C@@H]4O[C@@]45C[C@@H](O)CC[C@]5(C)[C@H]3CC[C@]12C [Cholesterol-5α,6α-epoxide, cholesterol-5α,6α-epoxide]
Bovine brain calmodulin
  effect in the phosphodiesterase assay: without effect

## CC(C)CCC[C@@H](C)[C@H]1CC[C@H]2[C@@H]3CC=C4C[C@@H](O)CC[C@]4(C)[C@H]3CC[C@]12C [cholesterol]
[1]; first feeding experiment, 61 days, added to chow: 1.6 g/day cholesterol and/or 50 mg/day hydroperoxide material
  atherosclerotic lesions in aorta (Sudan IV): heavily infiltrated with fatty material
[1]; first feeding experiment, 61 days, added to chow: 1.6 g/day cholesterol and/or 50 mg/day hydroperoxide material, listed as Cholesterol
  atherosclerotic lesions in aorta (Sudan IV): extensive atheroma formation
[1]; second feeding experiment, 56 days, added to chow: 1.6 g/day cholesterol and/or 50 mg/day test material
  atherosclerotic lesions in aorta (Sudan IV): less than in the first experiment
[2]; first feeding experiment
  Final blood plasma Cholesterol: 446 ± 163 mg/dL
  Final blood plasma Cholesterol Esters: 1507 ± 361 mg/dL
[2]; second feeding experiment
  Final blood plasma Cholesterol: 828 ± 459 mg/dL
  Final blood plasma Cholesterol Esters: 1520 ± 820 mg/dL
[3]
  cholesterol and esters, HEART: 158 +/- 74 mg/100 g wet tissue
  cholesterol and esters, LIVER: 4960 +/- 1416 mg/100 g wet tissue
  cholesterol, HEART: 160 +/- 24 mg/100 g wet tissue
  cholesterol, LIVER: 1217 +/- 615 mg/100 g wet tissue

## CN(C)CCCN1c2ccccc2Sc2ccc(Cl)cc21 [chlorpromazine]
[4]
  development of atherosclerotic lesions: reduced the development of such lesions
  effect on blood cholesterol: without lowering of blood cholesterol
